ChEMBL document CHEMBL5236579, “Hydrophobicity Determines the Bacterial Killing Rate of α-Helical Antimicrobial Peptides and Influences the Bacterial Resistance Development” (J Med Chem, 2022)
In brackets after ≈: the same amount, converted by molar mass. Activity calls are given as the source filed them. The rule behind the calls is not given here. Where a SMILES comes first, the peptide text is derived from it.

Key:
[1] = tested on: Cell membrane; assay: Induction of inner membrane permeabilization in Vibrio parahaemolyticus ATCC17802 assessed as increase in PI fluorescence intensity at 5 times MIC by propidium iodide penetration assay; type: cell membranes; conditions: time <= 200.0 min
[2] = tested on: Escherichia coli; assay: Antimicrobial activity against Escherichia coli ATCC27622 by two fold broth microdilution method; type: functional
[3] = tested on: Vibrio parahaemolyticus; assay: Induction of morphological changes in Vibrio parahaemolyticus ATCC17802 assessed as cellular inclusion leakage incubated at 5 times MIC and measured after 180 mins by scanning electron microscopy based analysis; type: functional, organism-based
[4] = tested on: Vibrio parahaemolyticus; assay: Bactericidal activity against Vibrio parahaemolyticus ATCC17802 assessed as killing rate at 0.5 X MIC by measuring time limit of detection by bacterial killing kinetic assay; type: functional
[5] = tested on: Peritoneal macrophage; assay: Cytotoxicity against mouse peritoneal macrophage cells incubated for 48 hrs by MTT assay; type: toxicity, cell-based; conditions: dose < 250 µg/ml
[6] = tested on: Staphylococcus aureus; assay: Antimicrobial activity against Staphylococcus aureus ATCC25923 by two fold broth microdilution method; type: functional
[7] = tested on: Bacillus cereus; assay: Antimicrobial activity against clinical isolates Bacillus cereus by two fold broth microdilution method; type: functional
[8] = tested on: Vibrio parahaemolyticus; assay: Induction of morphological changes in Vibrio parahaemolyticus ATCC17802 assessed as surface fibrosis incubated at 5 times MIC and measured after 180 mins by scanning electron microscopy based analysis; type: functional, organism-based
[9] = tested on: Vibrio parahaemolyticus; assay: Induction of morphological changes in Vibrio parahaemolyticus ATCC17802 assessed as massive cell collapse incubated at 5 times MIC and measured after 180 mins by scanning electron microscopy based analysis; type: functional, organism-based
[10] = tested on: HaCaT; assay: Cytotoxicity against human HaCaT cells incubated for 48 hrs by MTT assay; type: toxicity, cell-based; conditions: dose < 250 µg/ml
[11] = tested on: Staphylococcus aureus; assay: Antimicrobial activity against clinical isolates Staphylococcus aureus by two fold broth microdilution method; type: functional
[12] = tested on: Vibrio parahaemolyticus; assay: Antimicrobial activity against Vibrio parahaemolyticus ATCC17802 by two fold broth microdilution method; type: functional

Question: What does the source list for `CC[C@H](C)[C@H](NC(=O)[C@H](C)NC(=O)[C@H](CCCNC(=N)N)NC(=O)[C@H](C)NC(=O)[C@H](CC(C)C)NC(=O)[C@H](CCCCN)NC(=O)[C@H](CCCCN)NC(=O)[C@H](Cc1ccccc1)NC(=O)[C@H](CC(C)C)NC(=O)CNC(=O)[C@H](C)N)C(=O)N[C@@H](CCCCN)C(=O)N[C@@H](CCCCN)C(=O)NCC(=O)N[C@@H](Cc1ccccc1)C(=O)N[C@@H](CCCCN)C(=O)N[C@@H](CCCCN)C(=O)O` (H-AGLFKKLARAIKKGFKK-OH)?
Answer: Activity [1]: Active; MIC [2]: 9.38 µg/mL (≈ 4.93 µM); Activity [3]: Active; Time [4]: >180 min; Activity [5]: Dose-Dependent Effect; MIC ([6]; read-out: MIC): 4.69 µg/mL (≈ 2.46 µM); MIC [7]: 9.38 µg/mL (≈ 4.93 µM); Activity [8]: Active; Activity [9]: Active; Activity [10]: Dose-Dependent Effect; MIC [11]: 18.8 µg/mL (≈ 9.85 µM); MIC [12]: 4.69 µg/mL (≈ 2.46 µM)

Question: With `CC[C@H](C)[C@H](NC(=O)[C@H](CC(C)C)NC(=O)[C@H](CCCNC(=N)N)NC(=O)[C@H](CC(C)C)NC(=O)[C@H](CC(C)C)NC(=O)[C@H](CC(C)C)NC(=O)[C@H](CCCCN)NC(=O)[C@H](Cc1ccccc1)NC(=O)[C@H](CC(C)C)NC(=O)CNC(=O)[C@@H](N)CC(C)C)C(=O)N[C@@H](CC(C)C)C(=O)N[C@@H](CCCCN)C(=O)NCC(=O)N[C@@H](Cc1ccccc1)C(=O)N[C@@H](CCCCN)C(=O)N[C@@H](CC(C)C)C(=O)O` (H-LGLFKLLLRLILKGFKL-OH) as the compound, how does the MIC [2] read?
Answer: > 200 µg/mL

Question: What about the MIC [6] of the same compound?
Answer: > 200 µg/mL

Question: What about the MIC [7] of the same compound?
Answer: > 200 µg/mL

Question: What about the MIC [11] of the same compound?
Answer: > 200 µg/mL

Question: What about the MIC [12] of the same compound?
Answer: > 200 µg/mL

Question: How did the Activity [1] turn out when `CC[C@H](C)[C@H](NC(=O)[C@H](CCCCN)NC(=O)[C@H](CCCNC(=N)N)NC(=O)[C@H](CCCNC(=N)N)NC(=O)[C@H](CC(C)C)NC(=O)[C@H](CCCCN)NC(=O)[C@H](CCCCN)NC(=O)[C@H](Cc1ccccc1)NC(=O)[C@H](CC(C)C)NC(=O)CNC(=O)[C@@H](N)CCCNC(=N)N)C(=O)N[C@@H](CCCCN)C(=O)N[C@@H](CCCCN)C(=O)NCC(=O)N[C@@H](Cc1ccccc1)C(=O)N[C@@H](CCCCN)C(=O)N[C@@H](CCCCN)C(=O)O` (H-RGLFKKLRRKIKKGFKK-OH) was run?
Answer: Active

Question: What about the MIC [2] of the same compound?
Answer: 18.8 µg/mL (≈ 8.8 µM)

Question: What about the Time [4] of the same compound?
Answer: >180 min

Question: And the MIC ([6]; read-out: MIC)?
Answer: 4.69 µg/mL (≈ 2.2 µM)

Question: And the MIC [7]?
Answer: 9.38 µg/mL (≈ 4.4 µM)

Question: What about the MIC [11] of the same compound?
Answer: 18.8 µg/mL (≈ 8.8 µM)

Question: What about the MIC [12] of the same compound?
Answer: 4.69 µg/mL (≈ 2.2 µM)

Question: `CC[C@H](C)[C@H](NC(=O)[C@H](CCCCN)NC(=O)[C@H](CCCNC(=N)N)NC(=O)[C@H](CCCNC(=N)N)NC(=O)[C@H](CC(C)C)NC(=O)[C@H](CCCCN)NC(=O)[C@H](CCCCN)NC(=O)[C@H](Cc1ccccc1)NC(=O)[C@H](CC(C)C)NC(=O)CNC(=O)[C@H](CCCNC(=N)N)NC(=O)[C@@H](N)CCCNC(=N)N)C(=O)N[C@@H](CCCCN)C(=O)N[C@@H](CCCCN)C(=O)NCC(=O)N[C@@H](Cc1ccccc1)C(=O)N[C@@H](CCCCN)C(=O)N[C@@H](CCCCN)C(=O)N[C@H](C(=O)N[C@@H](Cc1ccccc1)C(=O)N[C@@H](CCCCN)C(=O)N[C@@H](CCCNC(=N)N)C(=O)N[C@@H](CC(C)C)C(=O)N1CCC[C@H]1C(=O)N1CCC[C@H]1C(=O)N[C@H](C(=O)NCC(=O)N[C@H](C(=O)NCC(=O)N[C@H](C(=O)N[C@@H](CO)C(=O)N[C@H](C(=O)N1CCC[C@H]1C(=O)N[C@@H](CC(C)C)C(=O)N[C@@H](C)C(=O)NCC(=O)N[C@@H](CCCNC(=N)N)C(=O)N[C@@H](CCCNC(=N)N)C(=O)O)[C@@H](C)CC)C(C)C)C(C)C)C(C)C)[C@@H](C)CC` (H-RRGLFKKLRRKIKKGFKKIFKRLPPVGVGVSIPLAGRR-OH) was tested. Which MIC [2] did it give?
Answer: 9.38 µg/mL (≈ 2.13 µM)

Question: What about the Time [4] of the same compound?
Answer: 120 min

Question: What about the MIC ([6]; read-out: MIC) of the same compound?
Answer: 4.69 µg/mL (≈ 1.07 µM)

Question: What about the MIC [7] of the same compound?
Answer: 4.69 µg/mL (≈ 1.07 µM)

Question: And the MIC [11]?
Answer: 9.38 µg/mL (≈ 2.13 µM)

Question: And the MIC [12]?
Answer: 4.69 µg/mL (≈ 1.07 µM)

Question: How did the MIC [2] turn out when `CC[C@H](C)[C@H](NC(=O)[C@H](CCCCN)NC(=O)[C@H](CC(C)C)NC(=O)[C@H](C)NC(=O)CNC(=O)[C@H](CC(N)=O)NC(=O)[C@H](CC(C)C)NC(=O)[C@@H](NC(=O)[C@H](CCCCN)NC(=O)[C@H](CCCCN)NC(=O)[C@H](Cc1c[nH]c2ccccc12)NC(=O)[C@H](Cc1ccccc1)NC(=O)[C@H](CCCCN)NC(=O)[C@H](CCCNC(=N)N)NC(=O)[C@H](CCCNC(=N)N)NC(=O)[C@@H](N)[C@@H](C)O)C(C)C)C(=O)N[C@@H](C)C(=O)N1CCC[C@H]1C(=O)N[C@@H](Cc1ccccc1)C(=O)N[C@@H](CC(C)C)C(=O)N[C@@H](CC(C)C)C(=O)NCC(=O)O` (H-TRRKFWKKVLNGALKIAPFLLG-OH) was run?
Answer: 9.38 µg/mL (≈ 3.67 µM)

Question: What about the Time [4] of the same compound?
Answer: 15 min

Question: And the MIC ([6]; read-out: MIC)?
Answer: 2.34 µg/mL (≈ 0.915 µM)

Question: What about the MIC [7] of the same compound?
Answer: 9.38 µg/mL (≈ 3.67 µM)

Question: What about the MIC [11] of the same compound?
Answer: 9.38 µg/mL (≈ 3.67 µM)

Question: And the MIC [12]?
Answer: 4.69 µg/mL (≈ 1.83 µM)

Question: For `CC[C@H](C)[C@H](NC(=O)[C@H](CC(C)C)NC(=O)[C@H](CCCNC(=N)N)NC(=O)[C@H](CC(C)C)NC(=O)[C@H](CC(C)C)NC(=O)[C@H](CC(C)C)NC(=O)[C@H](CC(C)C)NC(=O)[C@H](Cc1ccccc1)NC(=O)[C@H](CC(C)C)NC(=O)CNC(=O)[C@@H](N)CC(C)C)C(=O)N[C@@H](CC(C)C)C(=O)N[C@@H](CCCCN)C(=O)NCC(=O)N[C@@H](Cc1ccccc1)C(=O)N[C@@H](CCCCN)C(=O)N[C@@H](CC(C)C)C(=O)O` (H-LGLFLLLLRLILKGFKL-OH), which MIC [2] is on record?
Answer: > 200 µg/mL

Question: And the MIC [6]?
Answer: > 200 µg/mL

Question: What about the MIC [7] of the same compound?
Answer: > 200 µg/mL

Question: And the MIC [11]?
Answer: > 200 µg/mL

Question: What about the MIC [12] of the same compound?
Answer: > 200 µg/mL
